From PMC12217481, “Structure and mechanism of taniborbactam inhibition of the cefepime-hydrolyzing, partial R2-loop deletion Pseudomonas-derived cephalosporinase variant PDC-88” (Antimicrobial Agents and Chemotherapy, 2025) come the findings set out here.

For assay [1], the target named is T1, PDC-88 (Pseudomonas aeruginosa, UniProt P24735, DEL316-317/G27D/G391A/T105A/V205L/V356I).
T1 construct: NdeI 5′-[…]-3ʹ and BamHI 5ʹ-[…]-3ʹ; His tag removed) (N); made in house; host or cells: E. coli BL21-CodonPlus (DE3)-RP, pET24a(+)
The format is binding. On the procedure: Circular dichroism (CD) melting curve experiments were conducted using a J-815 spectropolarimeter (Jasco) and a Peltier effect temperature controller. Suprasil quartz cuvettes with a 0.1 cm path length (Hellma Analytics) were used in all experiments. […] Equilibrium constants were calculated, and the melting temperature, Tm, was calculated from equilibrium denaturation data as previously described ([28]).

For assay [2], the target named is T2, PDC-3 (Pseudomonas aeruginosa, UniProt P24735, T105A).
T2 construct: The PDC-3 expression construct was created in a similar manner but starting with a previously described pBC SK(−) vector; made in house; host or cells: E. coli BL21-CodonPlus (DE3)-RP, pET24a(+)
Nature of the assay: Off-rate (koff) by jump-dilution, PDC-3. The class given is biochemical. On the procedure:
(§1) The off-rates (koff) were determined using a jump-dilution method ([44]). […] The enzyme was serially diluted to 1 nM, and 100 μM nitrocefin was added to initiate the reaction. Recovery progress covers were recorded at 482 nm. The koff value was determined by fitting the progress curves to a single exponential equation. The half-life was determined by dividing ln(2) by koff.

The test system of assay [3] is isogenic E. coli strains expressing PDC R2-loop deletion variants (PDC-88 to PDC-92). Nature of the assay: MIC changes across the five isogenic E. coli R2-loop deletion strains. The class given is cell-based, Escherichia coli. Particulars: inhibitor at constant 4 µg/mL; R2-loop deletion variant strains. On the procedure:
Modal broth microdilution MICs (or median broth microdilution MICs where appropriate) were determined in accordance with Clinical and Laboratory Standards Institute (CLSI) M07 guidelines ([43]). Isogenic E. coli DH10B cells expressing the abovementioned plasmid-encoded PDC constructs were used. […] CLSI quality control strains Escherichia coli NCTC 13353, E. coli ATCC 35218, and Klebsiella pneumoniae ATCC 700603 were used during testing ([24]).

Assay [4] deals with T1, PDC-88. Nature of the assay: biochemical. The format is biochemical. On the procedure:
(§2) β-Lactamase kinetic and inhibitor constants were determined using an Agilent 8453 UV-Visible Spectrophotometer to record progress curves and determine initial rates and other kinetic parameters as appropriate. Reactions were carried out in 1× phosphate-buffered saline (PBS) (pH 7.4) at room temperature in a 0.2 cm path-length quartz cuvette (Hellma Analytics). Reads were taken every 10 s to minimize UV-mediated background hydrolysis.
(§3) Competitive inhibition assays were used to determine IC50 and Ki app. Nitrocefin (a reporter substrate), enzyme, and inhibitor were mixed, and initial velocities were determined. […] Inverse steady-state velocities (1/V0) were plotted against inhibitor concentration ([I]), forming a straight line. The y-intercept of this line was divided by the slope of the line to yield Ki app obs and IC50 values. Apparent Ki values (Ki app) were determined by correcting for the affinity of nitrocefin in the active site using equation 2:
(§4) (2) KI app= KI app{obs/1+[S]/KM NCF

Assay [5] concerns the target T2, PDC-3. Nature of the assay: Thermal denaturation by circular dichroism, PDC-3. The class given is binding. On the procedure: Competitive enzyme inhibitors can increase enzyme thermal stability as a result of binding to the active site.
Circular dichroism (CD) melting curve experiments were conducted using a J-815 spectropolarimeter (Jasco) and a Peltier effect temperature controller. Suprasil quartz cuvettes with a 0.1 cm path length (Hellma Analytics) were used in all experiments. […] Two-state behavior was observed, as indicated by identical curves at each wavelength. Equilibrium constants were calculated, and the melting temperature, Tm, was calculated from equilibrium denaturation data as previously described ([28]).
(Circular dichroism is the unequal absorption of left and right circularly polarised light.)

For assay [6], the target named is T2, PDC-3. Nature of the assay: Competitive inhibition assay with nitrocefin (Ki app, IC50), PDC-3. The class given is biochemical. On the procedure:
as §2, §3, §4

Assay [7] has as its target T1, PDC-88. Nature of the assay: Off-rate (koff) by jump-dilution, PDC-88. The format is biochemical. On the procedure:
as §1

In the case of `NCCN[C@H]1CC[C@H](CC(=O)N[C@H]2Cc3cccc(C(=O)O)c3OB2O)CC1` [TAN, taniborbactam], the “increase of Tm upon addition of inhibitor” value in assay [1] (PDC-88) is “+7 °C”; in assay [5] (PDC-3), “+9 °C”. Further, the Tm in assay [1] (PDC-88 with inhibitor, circular dichroism, PDC-88 alone 53°C) was 60 °C; in assay [5] (PDC-3 with inhibitor, circular dichroism, PDC-3 alone 52°C), 61 °C. Further, the results for the koff in assay [2] and in assay [7] were 0.0012 ± 0.0001 s⁻¹ and 0.0007 ± 0.0001 s⁻¹, respectively. Also, in assay [3], the “restoration of FEP activity / susceptibility by inhibitor” value is given as “restoring FEP activity in all cases”. Also, the IC50 stood at 22 ± 2 nM in assay [4] and 16 ± 2 nM in assay [6] (nitrocefin reporter substrate, 5 min preincubation). Also, the Ki turned out to be 610 ± 60 nM in assay [4] and 660 ± 70 nM in assay [6] (nitrocefin reporter substrate). The “Ki app lower compared to avibactam” value stood at 9 fold in assay [4] (PDC-88) and 4.1 fold in assay [6]. In addition, the “Ki app lower than TZB” value in assay [4] (PDC-88) is 95 fold; in assay [6], 40 fold.

Broadly, the koff is a measure of how fast the partners let go of each other. Low readings indicate a long-lived complex, high ones a short-lived complex. A word on the IC50: it is the point on the concentration scale where inhibition reaches its midpoint. High values mean lower potency, low ones higher potency.
